Source: patent US20250263753A1, “BRIDGED CYCLE-BASED INHIBITORS OF DNA-DEPENDENT PROTEIN KINASE AND COMPOSITIONS AND APPLICATION IN GENE EDITING” (Juno Therapeutics, Inc., priority 2023, published 2025)
Read-outs that look alike come from different tables or passages of the source.

Key:
[1] = target: PI3Kα (His-PIK3CA/PIK3R1, p110 alpha/p85 alpha) (Homo sapiens (Human), UniProt P42336); test: PI3Kα biochemical assay (HTRF/FRET probe); type: binding; conditions: class symbol
Experimental: Phosphoinositide 3-kinase α (PI3Kα) Biochemical Assay: A solution was prepared containing 0.2 nM Anti-HIS-Terbium (Cisbio, 64CUSTAZU), 3.7 nM designed-probe and 1.0 nM His-PIK3CA/PIK3R1 (p110 alpha/p85 alpha) in FRET Buffer (20 mM HEPES, 10 mM MgCl2, 0.015% Brij-35, 4 mM DTT, 0.05 mg/mL BSA).

[2] = target: DNA-PK (Homo sapiens (Human), UniProt P78527); test: DNA-PK biochemical assay (Reaction Biology HotSpot kinase assay, 10 μM ATP)
Experimental: DNA-PK Biochemical Assay Using Reaction Biology's HotSpot Kinase Assay Protocol:
Reagent: Base Reaction buffer; 20 mM Hepes (pH 7.5), 10 mM MgCl2, 1 mM EGTA, 0.01% Brij35, 0.02 mg/ml BSA, 0.1 mM Na3VO4, 2 mM DTT, 1% DMSO Required cofactors are added individually to each kinase reaction.
Reaction Procedure: 1. Prepare substrate in freshly prepared Reaction Buffer; 2. Deliver any required cofactors to the substrate solution above; 3. Deliver kinase into the substrate solution and gently mix; 4. Deliver compounds in 100% DMSO into the kinase reaction mixture by Acoustic technology (Echo550; nanoliter range), incubate for 20 min at room temperature; 5. Deliver 33P-ATP into the reaction mixture to initiate the reaction; 6. Incubate for 2 hours at room temperature; 7. Detect kinase activity by P81 filter-binding method.

[3] = target: PI3Kδ (His-PIK3CD/PIK3R1, p110 delta/p85 alpha) (Homo sapiens (Human), UniProt O00329); test: PI3Kδ biochemical assay (HTRF/FRET probe); type: binding; conditions: class symbol
Chain of PI3Kδ (His-PIK3CD/PIK3R1, p110 delta/p85 alpha) (O00329 whole entry, species assumed): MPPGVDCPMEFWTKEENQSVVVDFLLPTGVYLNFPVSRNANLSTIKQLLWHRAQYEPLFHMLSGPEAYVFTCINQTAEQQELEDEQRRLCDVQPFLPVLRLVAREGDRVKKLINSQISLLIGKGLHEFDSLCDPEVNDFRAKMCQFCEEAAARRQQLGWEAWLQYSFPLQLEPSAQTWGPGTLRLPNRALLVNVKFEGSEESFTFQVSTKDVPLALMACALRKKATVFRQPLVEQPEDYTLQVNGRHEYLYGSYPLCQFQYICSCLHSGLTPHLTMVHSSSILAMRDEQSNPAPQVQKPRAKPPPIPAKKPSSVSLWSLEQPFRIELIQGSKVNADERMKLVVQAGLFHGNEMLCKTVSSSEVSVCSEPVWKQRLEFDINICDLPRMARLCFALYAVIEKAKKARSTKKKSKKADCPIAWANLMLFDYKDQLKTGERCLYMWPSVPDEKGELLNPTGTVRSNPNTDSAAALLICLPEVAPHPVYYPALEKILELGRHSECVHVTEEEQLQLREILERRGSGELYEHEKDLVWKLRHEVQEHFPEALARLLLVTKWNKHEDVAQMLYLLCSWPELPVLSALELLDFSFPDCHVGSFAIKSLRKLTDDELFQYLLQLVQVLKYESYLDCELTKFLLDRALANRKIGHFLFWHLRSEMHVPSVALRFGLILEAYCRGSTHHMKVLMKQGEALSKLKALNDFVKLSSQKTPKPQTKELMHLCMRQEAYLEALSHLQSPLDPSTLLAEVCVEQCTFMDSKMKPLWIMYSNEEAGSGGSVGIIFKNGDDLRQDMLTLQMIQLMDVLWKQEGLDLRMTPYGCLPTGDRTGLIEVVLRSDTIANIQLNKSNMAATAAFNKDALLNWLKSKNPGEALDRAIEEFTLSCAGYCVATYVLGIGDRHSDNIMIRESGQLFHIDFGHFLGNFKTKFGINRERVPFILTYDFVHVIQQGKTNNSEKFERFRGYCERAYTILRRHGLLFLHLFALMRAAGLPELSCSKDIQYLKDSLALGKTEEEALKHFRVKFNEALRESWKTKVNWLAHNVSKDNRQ
Chain of PI3Kδ (His-PIK3CD/PIK3R1, p110 delta/p85 alpha) (P27986 whole entry partner, species assumed): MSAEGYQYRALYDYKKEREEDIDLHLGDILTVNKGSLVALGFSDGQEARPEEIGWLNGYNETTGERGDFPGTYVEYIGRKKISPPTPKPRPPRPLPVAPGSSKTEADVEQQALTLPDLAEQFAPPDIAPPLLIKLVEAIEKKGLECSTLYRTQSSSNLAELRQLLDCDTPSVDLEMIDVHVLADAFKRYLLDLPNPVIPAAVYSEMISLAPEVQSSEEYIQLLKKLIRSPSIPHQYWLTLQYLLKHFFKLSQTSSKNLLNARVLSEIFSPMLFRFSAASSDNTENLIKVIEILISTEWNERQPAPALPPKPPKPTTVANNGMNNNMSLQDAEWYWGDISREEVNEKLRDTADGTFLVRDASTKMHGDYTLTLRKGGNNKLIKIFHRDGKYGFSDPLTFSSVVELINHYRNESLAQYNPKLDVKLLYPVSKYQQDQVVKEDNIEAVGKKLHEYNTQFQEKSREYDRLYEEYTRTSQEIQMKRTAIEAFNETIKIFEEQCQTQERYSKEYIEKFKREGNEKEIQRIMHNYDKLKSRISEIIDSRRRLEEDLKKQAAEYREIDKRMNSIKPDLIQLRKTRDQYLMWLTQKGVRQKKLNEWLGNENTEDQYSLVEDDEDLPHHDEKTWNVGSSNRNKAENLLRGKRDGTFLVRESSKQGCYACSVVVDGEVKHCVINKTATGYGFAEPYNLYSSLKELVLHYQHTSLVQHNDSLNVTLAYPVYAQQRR
Experimental: Phosphoinositide 3-kinase (PI3K) Biochemical Assay: A solution was prepared containing 0.2 nM Anti-HIS-Terbium (Cisbio, 64CUSTAZU), 40 nM designed-probe and 1.0 nM His-PIK3CD/PIK3R1 (p110 delta/p85 alpha) in FRET Buffer (20 mM HEPES, 10 mM MgCl2, 0.015% Brij-35, 4 mM DTT, 0.05 mg/mL BSA).

[4] = target: ATM (Homo sapiens (Human), UniProt Q13315); test: ATM biochemical assay (Reaction Biology HTRF kinase assay, 10 μM ATP)
Chain of ATM (Q13315 whole entry): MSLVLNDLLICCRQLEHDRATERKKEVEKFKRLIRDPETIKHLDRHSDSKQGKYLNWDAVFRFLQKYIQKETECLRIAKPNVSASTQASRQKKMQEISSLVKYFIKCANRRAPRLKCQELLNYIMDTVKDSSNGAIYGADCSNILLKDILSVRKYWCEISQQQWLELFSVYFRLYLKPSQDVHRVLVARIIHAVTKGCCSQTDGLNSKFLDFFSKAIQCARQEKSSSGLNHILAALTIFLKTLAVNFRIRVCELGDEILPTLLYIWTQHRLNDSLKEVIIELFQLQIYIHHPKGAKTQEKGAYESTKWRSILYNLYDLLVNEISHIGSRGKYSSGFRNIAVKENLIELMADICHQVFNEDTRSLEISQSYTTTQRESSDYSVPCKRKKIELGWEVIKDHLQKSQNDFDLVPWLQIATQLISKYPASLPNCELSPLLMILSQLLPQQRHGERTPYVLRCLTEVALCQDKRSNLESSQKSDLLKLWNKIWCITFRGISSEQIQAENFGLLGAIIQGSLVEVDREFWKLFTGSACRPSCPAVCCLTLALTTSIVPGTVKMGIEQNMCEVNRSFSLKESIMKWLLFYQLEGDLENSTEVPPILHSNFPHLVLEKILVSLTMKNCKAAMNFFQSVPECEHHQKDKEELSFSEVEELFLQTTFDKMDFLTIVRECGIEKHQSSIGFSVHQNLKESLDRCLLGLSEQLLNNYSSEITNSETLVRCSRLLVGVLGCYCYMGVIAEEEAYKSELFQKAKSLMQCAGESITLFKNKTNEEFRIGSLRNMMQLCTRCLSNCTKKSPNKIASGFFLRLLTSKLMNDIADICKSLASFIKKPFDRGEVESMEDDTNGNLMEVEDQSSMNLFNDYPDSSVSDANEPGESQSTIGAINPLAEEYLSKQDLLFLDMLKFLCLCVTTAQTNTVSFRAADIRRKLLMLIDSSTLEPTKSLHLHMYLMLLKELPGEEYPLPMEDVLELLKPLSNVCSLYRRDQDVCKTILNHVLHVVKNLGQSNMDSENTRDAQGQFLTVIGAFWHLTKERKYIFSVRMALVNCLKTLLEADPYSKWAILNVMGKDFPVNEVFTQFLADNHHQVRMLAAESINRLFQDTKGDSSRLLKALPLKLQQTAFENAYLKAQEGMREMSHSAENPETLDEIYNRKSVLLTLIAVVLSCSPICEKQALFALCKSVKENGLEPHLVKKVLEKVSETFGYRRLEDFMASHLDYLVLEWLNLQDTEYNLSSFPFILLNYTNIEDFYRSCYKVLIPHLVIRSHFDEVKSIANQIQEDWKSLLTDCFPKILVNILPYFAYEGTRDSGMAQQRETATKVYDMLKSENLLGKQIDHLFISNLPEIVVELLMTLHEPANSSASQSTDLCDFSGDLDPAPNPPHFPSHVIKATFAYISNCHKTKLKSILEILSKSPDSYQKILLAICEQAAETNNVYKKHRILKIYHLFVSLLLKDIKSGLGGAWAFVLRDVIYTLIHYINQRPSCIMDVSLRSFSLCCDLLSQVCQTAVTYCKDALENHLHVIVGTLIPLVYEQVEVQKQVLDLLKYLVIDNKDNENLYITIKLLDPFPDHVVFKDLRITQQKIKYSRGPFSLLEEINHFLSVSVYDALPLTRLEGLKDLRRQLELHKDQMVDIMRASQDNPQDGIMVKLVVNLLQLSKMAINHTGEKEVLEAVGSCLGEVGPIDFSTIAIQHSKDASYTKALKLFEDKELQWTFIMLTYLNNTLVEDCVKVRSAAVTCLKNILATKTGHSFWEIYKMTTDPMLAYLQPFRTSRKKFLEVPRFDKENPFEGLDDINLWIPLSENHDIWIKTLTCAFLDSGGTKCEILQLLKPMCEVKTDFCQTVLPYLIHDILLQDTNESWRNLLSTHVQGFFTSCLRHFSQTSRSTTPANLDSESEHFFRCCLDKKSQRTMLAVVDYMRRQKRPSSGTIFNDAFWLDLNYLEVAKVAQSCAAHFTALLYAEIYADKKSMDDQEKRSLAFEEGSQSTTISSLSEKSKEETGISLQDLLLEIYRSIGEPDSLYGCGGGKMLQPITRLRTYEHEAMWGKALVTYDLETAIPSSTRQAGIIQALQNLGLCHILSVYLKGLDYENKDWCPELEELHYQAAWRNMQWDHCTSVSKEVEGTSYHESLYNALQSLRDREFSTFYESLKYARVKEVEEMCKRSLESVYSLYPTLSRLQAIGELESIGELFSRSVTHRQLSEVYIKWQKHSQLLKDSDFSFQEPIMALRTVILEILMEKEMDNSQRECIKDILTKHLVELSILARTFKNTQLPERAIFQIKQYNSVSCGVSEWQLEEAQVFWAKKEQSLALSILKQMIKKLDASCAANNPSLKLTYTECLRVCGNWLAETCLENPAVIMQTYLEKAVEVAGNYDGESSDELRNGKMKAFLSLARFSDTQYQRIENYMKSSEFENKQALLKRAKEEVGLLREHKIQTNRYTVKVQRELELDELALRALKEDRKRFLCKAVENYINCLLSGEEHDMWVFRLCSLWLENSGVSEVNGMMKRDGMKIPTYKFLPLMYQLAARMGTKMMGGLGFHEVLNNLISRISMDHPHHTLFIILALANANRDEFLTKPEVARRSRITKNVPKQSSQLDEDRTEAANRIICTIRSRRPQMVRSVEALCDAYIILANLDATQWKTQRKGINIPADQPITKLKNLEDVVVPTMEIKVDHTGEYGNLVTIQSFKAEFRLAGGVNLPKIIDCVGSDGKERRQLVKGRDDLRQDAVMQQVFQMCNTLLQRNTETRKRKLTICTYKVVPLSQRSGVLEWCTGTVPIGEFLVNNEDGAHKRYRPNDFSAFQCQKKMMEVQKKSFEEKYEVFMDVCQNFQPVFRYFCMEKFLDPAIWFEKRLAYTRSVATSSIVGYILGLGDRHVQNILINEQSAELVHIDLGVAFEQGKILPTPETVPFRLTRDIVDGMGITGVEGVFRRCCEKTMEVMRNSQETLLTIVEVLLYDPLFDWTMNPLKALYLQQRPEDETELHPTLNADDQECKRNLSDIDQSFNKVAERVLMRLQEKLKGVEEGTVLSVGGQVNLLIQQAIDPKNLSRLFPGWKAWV
Experimental: Ataxia-Telangiectasia Mutated (ATM) Biochemical Assay Using Reaction Biology's HTRF Kinase Assay Protocol:
The assay detects kinase activity by antibody based HTRF assay. The GST-tagged p53 protein serves as substrate and Eu-labeled-antibody with specific phosphorylation site binds upon phosphorylation which is monitored by HTRF from the anti-GST-d2.
Reagent: Reaction buffer; 50 mM Hepes (pH 7.5), 150 mM NaCl, 10 mM MnCl2, 1% Glycerol, 0.01% Brij35, 1 mM DTT, 1% DMSO.
Substrate: Human p53 (aa2-393), RBC produced in E. coli, N-terminal GST-Tag, MW=70.42 kDa.
Detection; MAb Anti-p53-pS15-Eu cryptate, CisBio cat #61P08KAZ; MAb Anti GST-d2
Reaction Procedure: 1. Deliver 2× Enzyme in wells of reaction plate except No E control wells. Add buffer instead; 2. Deliver compounds in 100% DMSO into the kinase reaction mixture by Acoustic technology (Echo550; nanoliter range), incubate for 30 min at room temperature; 3. Deliver 2× substrate+ATP mixture into the reaction mixture to initiate the reaction; 4. Incubate for 2 hours at room temperature.
HTRF Detection: 1. Deliver 2× Stop/Detection mixture and incubate for 2 hours to overnight in the dark. 2. HTRF measurement (Ex/Em1/Em2=320/615/665 nm) in EnVision.

[5] = read-out: DNA-PK HotSpot 10 μM ATP IC50, class symbol
[6] = read-out: ATM HTRF 10 μM ATP IC50, class symbol

| SMILES | IC50 [1] | IC50 ([2]; class symbol) | IC50 [3] | IC50 ([4]; class symbol) | IC50 [2, 5] | IC50 [4, 6] |
| --- | --- | --- | --- | --- | --- | --- |
| Cc1cc2nccnc2cc1Nc1ncc2c(n1)n(C13CC(F)(C1)C3)c(=O)n2C [Compound 15, 9-(3-fluorobicyclo[1.1.1]pentan-1-yl)-7-methyl-2-((7-methylquinoxalin-6-yl)amino)-7,9-dihydro-8H-purin-8-one] | 0.1 to 1 µM | 0.001 to 0.01 µM | ≥ 1 µM | 0.1 to 1 µM |  |  |
| COCC12CC(n3c(=O)n(C)c4cnc(Nc5cc6c(cc5C)OCO6)nc43)(C1)C2 [Compound 21, 9-(3-(methoxymethyl)bicyclo[1.1.1]pentan-1-yl)-7-methyl-2-((6-methylbenzo[d][1,3]dioxol-5-yl)amino)-7,9-dihydro-8H-purin-8-one] | ≥ 1 µM | 0.001 to 0.01 µM | ≥ 1 µM | 0.01 to 0.1 µM |  |  |
| Cc1cc2nsnc2cc1Nc1ncc2c(n1)N(C13CC(F)(C1)C3)CC(=O)N2C [Compound 58, 8-(3-fluorobicyclo[1.1.1]pentan-1-yl)-5-methyl-2-((6-methylbenzo[c][1,2,5]thiadiazol-5-yl)amino)-7,8-dihydropteridin-6(5H)-one] | ≥ 1 µM |  |  | 0.1 to 1 µM | < 0.001 µM |  |
| Cc1cc2ncnn2cc1Nc1ncc2c(n1)N(C13CCC(O)(CC1)C3)C(=O)C21CC1 [Compound 66, 7′-(4-hydroxybicyclo[2.2.1]heptan-1-yl)-2′-((7-methyl-[1,2,4]triazolo[1,5-a]pyridin-6-yl)amino)spiro[cyclopropane-1,5′-pyrrolo[2,3-d]pyrimidin]-6′(7′H)-one] | 0.01 to 0.1 µM |  | 0.1 to 1 µM | 0.1 to 1 µM | < 0.001 µM |  |
| Cc1cc2nsnc2cc1Nc1ncc2c(n1)N(C13CCC(O)(CC1)C3)CC(=O)N2C [Compound 55, 8-{4-Hydroxybicyclo[2.2.1]heptan-1-yl}-5-methyl-2-[(6-methyl-2,1,3-benzothiadiazol-5-yl)amino]-5,6,7,8-tetrahydropteridin-6-one] | 0.01 to 0.1 µM |  | 0.1 to 1 µM | 0.001 to 0.01 µM | < 0.001 µM |  |
| Cc1cc2nccnc2cc1Nc1ncc2c(n1)n(C13CCC(O)(CC1)C3)c(=S)n2C [Compound 33, 9-(4-hydroxybicyclo[2.2.1]heptan-1-yl)-7-methyl-2-((7-methylquinoxalin-6-yl)amino)-7,9-dihydro-8H-purine-8-thione] | 0.1 to 1 µM | 0.001 to 0.01 µM | 0.01 to 0.1 µM | 0.1 to 1 µM |  |  |
| Cc1cc(-c2cnn(C)c2)c(F)cc1Nc1ncc2c(n1)n(C13CC(F)(C1)C3)c(=O)n2C [Compound 38, 2-((5-fluoro-2-methyl-4-(1-methyl-1H-pyrazol-4-yl)phenyl)amino)-9-(3-fluorobicyclo[1.1.1]pentan-1-yl)-7-methyl-7,9-dihydro-8H-purin-8-one] |  | 0.01 to 0.1 µM | ≥ 1 µM | 0.01 to 0.1 µM |  |  |
| COC12CCC(N3CC(=O)N(C)c4cnc(Nc5cc6c(cc5C)OCO6)nc43)(CC1)C2 [Compound 63, 8-(4-methoxybicyclo[2.2.1]heptan-1-yl)-5-methyl-2-((6-methylbenzo[d][1,3]dioxol-5-yl)amino)-7,8-dihydropteridin-6(5H)-one] | ≥ 1 µM | 0.001 to 0.01 µM | 0.1 to 1 µM | 0.1 to 1 µM |  |  |

Further lines, results first:

| IC50 [1] | IC50 ([2]; class symbol) | IC50 [3] | IC50 ([4]; class symbol) | IC50 [2, 5] | IC50 [4, 6] | SMILES |
| --- | --- | --- | --- | --- | --- | --- |
| 0.1 to 1 µM | 0.001 to 0.01 µM | 0.1 to 1 µM | 0.01 to 0.1 µM |  |  | Cc1cc2ncccc2cc1Nc1ncc2c(n1)N(C13CC(F)(C1)C3)CC(=O)N2C [Compound 57, 8-(3-fluorobicyclo[1.1.1]pentan-1-yl)-5-methyl-2-((7-methylquinolin-6-yl)amino)-7,8-dihydropteridin-6(5H)-one] |
| ≥ 1 µM | 0.001 to 0.01 µM |  |  |  | ≥ 1 µM | Cc1cc2c(cc1Nc1ncc3c(n1)n(C14CCC(O)(CC1)C4)c(=S)n3C)OCO2 [Compound 32, 9-(4-hydroxybicyclo[2.2.1]heptan-1-yl)-7-methyl-2-((6-methylbenzo[d][1,3]dioxol-5-yl)amino)-7,9-dihydro-8H-purine-8-thione] |
| 0.1 to 1 µM |  | 0.1 to 1 µM | 0.01 to 0.1 µM | < 0.001 µM |  | Cc1cc2nccnc2cc1Nc1ncc2c(C)nn(C34CC(C3)C4)c2n1 [Compound 49, N-(1-(bicyclo[1.1.1]pentan-1-yl)-3-methyl-1H-pyrazolo[3,4-d]pyrimidin-6-yl)-7-methylquinoxalin-6-amine] |
| ≥ 1 µM | 0.001 to 0.01 µM | ≥ 1 µM |  |  | ≥ 1 µM | Cc1cc2c(cc1Nc1ncc3c(n1)N(C14CC(F)(C1)C4)C(=O)C31CC1)OCO2 [Compound 76, 7′-(3-fluorobicyclo[1.1.1]pentan-1-yl)-2′-((6-methylbenzo[d][1,3]dioxol-5-yl)amino)spiro[cyclopropane-1,5′-pyrrolo[2,3-d]pyrimidin]-6′(7′H)-one] |
| ≥ 1 µM | 0.01 to 0.1 µM | ≥ 1 µM |  |  | ≥ 1 µM | Cc1cc2c(cc1Nc1ncc3c(n1)N(C14CC(F)(C1)C4)CC(=O)N3C)OCO2 [Compound 56, 8-{3-Fluorobicyclo[1.1.1]pentan-1-yl}-5-methyl-2-[(6-methyl-2H-1,3-benzodioxol-5-yl)amino]-5,6,7,8-tetrahydropteridin-6-one] |
| ≥ 1 µM | 0.001 to 0.01 µM | ≥ 1 µM | 0.1 to 1 µM |  |  | Cc1cc2ncnn2cc1Nc1ncc2c(C)nn(C34CC(C3)C4)c2n1 [Compound 47, 1-(bicyclo[1.1.1]pentan-1-yl)-3-methyl-N-(7-methyl-[1,2,4]triazolo[1,5-a]pyridin-6-yl)-1H-pyrazolo[3,4-d]pyrimidin-6-amine] |
| 0.1 to 1 µM |  | ≥ 1 µM | 0.1 to 1 µM | < 0.001 µM |  | Cc1cc2ncccc2cc1Nc1ncc2c(n1)N(C13CC(F)(C1)C3)C(=O)C21CC1 [Compound 71, 7′-(3-fluorobicyclo[1.1.1]pentan-1-yl)-2′-((7-methylquinolin-6-yl)amino)spiro[cyclopropane-1,5′-pyrrolo[2,3-d]pyrimidin]-6′(7′H)-one] |
| 0.1 to 1 µM |  | 0.1 to 1 µM | 0.001 to 0.01 µM | < 0.001 µM |  | COC12CCC(n3c(=O)n(C)c4cnc(Nc5cn6ncnc6cc5C)nc43)(CC1)CC2 [Compound 25, 9-(4-methoxybicyclo[2.2.2]octan-1-yl)-7-methyl-2-((7-methyl-[1,2,4]triazolo[1,5-a]pyridin-6-yl)amino)-7,9-dihydro-8H-purin-8-one] |
|  | 0.001 to 0.01 µM | ≥ 1 µM |  |  | ≥ 1 µM | COC12CCC(n3c(=O)n(C)c4cnc(Nc5cc6c(cc5C)OCO6)nc43)(C1)C2 [Compound 28, 9-(4-methoxybicyclo[2.1.1]hexan-1-yl)-7-methyl-2-((6-methylbenzo[d][1,3]dioxol-5-yl)amino)-7,9-dihydro-8H-purin-8-one] |
| 0.01 to 0.1 µM |  |  | 0.01 to 0.1 µM | < 0.001 µM |  | Cc1cc2nsnc2cc1Nc1ncc2c(n1)N(C13CCC(O)(CC1)C3)C(=O)C21CC1 [Compound 69, 7′-(4-hydroxybicyclo[2.2.1]heptan-1-yl)-2′-((6-methylbenzo[c][1,2,5]thiadiazol-5-yl)amino)spiro[cyclopropane-1,5′-pyrrolo[2,3-d]pyrimidin]-6′(7′H)-one] |
|  |  | 0.01 to 0.1 µM | 0.01 to 0.1 µM | < 0.001 µM |  | Cc1cc2ncccc2cc1Nc1ncc2c(n1)N(C13CCC(O)(CC1)C3)CC(=O)N2C [Compound 53, 8-{4-Hydroxybicyclo[2.2.1]heptan-1-yl}-5-methyl-2-[(7-methylquinolin-6-yl)amino]-5,6,7,8-tetrahydropteridin-6-one] |
